What follows are molecules tested against Nav1.7 (Homo sapiens, UniProt Q15858) (assay: EFS-FRET assay). Details: CHO cells expressing human Nav1.7 channels, read-out: IC50 against Nav1.7.
Assay type: cell-based
Parameters: expressed in transfected cells; host or cells: CHO (Chinese hamster ovary) cells
Procedure: This screen is used to determine the effects of compounds on human Nav1.7 channels, utilizing electrical field stimulation (EFS) system in 96-well plate format on FDSS (Hamamatsu Photonics) platform. The changes of membrane potential are monitored with FRET dye pair, DiSBAC2(3) and PTS18.
CHO (Chinese hamster ovary) cells expressing human Nav1.7 channels are grown in T225 flasks, in a 5% CO2 humidified incubator to about 80% confluence. Media composition consists of HAM/F12 with Glutamax I, 10% FCS, 100 units/mF penicillin and 100 microgram/mF hygromycin.
• Seed each cell lines (1×10^5 cells/well) into 96-well plates prior to experimentation. • Incubate at 37° C. in 5% CO2 for 24 hours. • Wash each well with assay buffer (140 mM NaCl, 4.5 mM KCl, 10 mM D-Glucose, 2 mM CaCl2, 1 mM MgCl2, 10 mM HEPES, pH 7.4 adjusted with NaOH) twice. • Add 1st loading solution containing 10 microM PTS18 and 0.06% Pluronic F-127 in assay buffer. • Incubate the plate at rt in dark for 1 hour. • Remove 1st loading solution and add 2nd loading solution containing 12.5 microM DiSBAC2(3), 1.25 mM Xylene Fast Yellow and 0.0075% Pluronic F-127 in assay buffer. • Place the plate under the dark at rt for 25 minutes. • Add compound solutions into the assay plate. • Set the assay plate in FDSS and place an EFS device on the plate. • Measure EFS-induced fluorescent response by FDSS.
The data are analyzed and reported as normalized ratios of intensities measured at […]. The process of calculating these ratios is performed as follows:
This analysis is performed using a computerized specific program designed for FDSS generated data. Fluorescence ratio values are plotted using XLfit to determine an IC50 value for each compound.

Chain of Nav1.7 (Q15858 whole entry): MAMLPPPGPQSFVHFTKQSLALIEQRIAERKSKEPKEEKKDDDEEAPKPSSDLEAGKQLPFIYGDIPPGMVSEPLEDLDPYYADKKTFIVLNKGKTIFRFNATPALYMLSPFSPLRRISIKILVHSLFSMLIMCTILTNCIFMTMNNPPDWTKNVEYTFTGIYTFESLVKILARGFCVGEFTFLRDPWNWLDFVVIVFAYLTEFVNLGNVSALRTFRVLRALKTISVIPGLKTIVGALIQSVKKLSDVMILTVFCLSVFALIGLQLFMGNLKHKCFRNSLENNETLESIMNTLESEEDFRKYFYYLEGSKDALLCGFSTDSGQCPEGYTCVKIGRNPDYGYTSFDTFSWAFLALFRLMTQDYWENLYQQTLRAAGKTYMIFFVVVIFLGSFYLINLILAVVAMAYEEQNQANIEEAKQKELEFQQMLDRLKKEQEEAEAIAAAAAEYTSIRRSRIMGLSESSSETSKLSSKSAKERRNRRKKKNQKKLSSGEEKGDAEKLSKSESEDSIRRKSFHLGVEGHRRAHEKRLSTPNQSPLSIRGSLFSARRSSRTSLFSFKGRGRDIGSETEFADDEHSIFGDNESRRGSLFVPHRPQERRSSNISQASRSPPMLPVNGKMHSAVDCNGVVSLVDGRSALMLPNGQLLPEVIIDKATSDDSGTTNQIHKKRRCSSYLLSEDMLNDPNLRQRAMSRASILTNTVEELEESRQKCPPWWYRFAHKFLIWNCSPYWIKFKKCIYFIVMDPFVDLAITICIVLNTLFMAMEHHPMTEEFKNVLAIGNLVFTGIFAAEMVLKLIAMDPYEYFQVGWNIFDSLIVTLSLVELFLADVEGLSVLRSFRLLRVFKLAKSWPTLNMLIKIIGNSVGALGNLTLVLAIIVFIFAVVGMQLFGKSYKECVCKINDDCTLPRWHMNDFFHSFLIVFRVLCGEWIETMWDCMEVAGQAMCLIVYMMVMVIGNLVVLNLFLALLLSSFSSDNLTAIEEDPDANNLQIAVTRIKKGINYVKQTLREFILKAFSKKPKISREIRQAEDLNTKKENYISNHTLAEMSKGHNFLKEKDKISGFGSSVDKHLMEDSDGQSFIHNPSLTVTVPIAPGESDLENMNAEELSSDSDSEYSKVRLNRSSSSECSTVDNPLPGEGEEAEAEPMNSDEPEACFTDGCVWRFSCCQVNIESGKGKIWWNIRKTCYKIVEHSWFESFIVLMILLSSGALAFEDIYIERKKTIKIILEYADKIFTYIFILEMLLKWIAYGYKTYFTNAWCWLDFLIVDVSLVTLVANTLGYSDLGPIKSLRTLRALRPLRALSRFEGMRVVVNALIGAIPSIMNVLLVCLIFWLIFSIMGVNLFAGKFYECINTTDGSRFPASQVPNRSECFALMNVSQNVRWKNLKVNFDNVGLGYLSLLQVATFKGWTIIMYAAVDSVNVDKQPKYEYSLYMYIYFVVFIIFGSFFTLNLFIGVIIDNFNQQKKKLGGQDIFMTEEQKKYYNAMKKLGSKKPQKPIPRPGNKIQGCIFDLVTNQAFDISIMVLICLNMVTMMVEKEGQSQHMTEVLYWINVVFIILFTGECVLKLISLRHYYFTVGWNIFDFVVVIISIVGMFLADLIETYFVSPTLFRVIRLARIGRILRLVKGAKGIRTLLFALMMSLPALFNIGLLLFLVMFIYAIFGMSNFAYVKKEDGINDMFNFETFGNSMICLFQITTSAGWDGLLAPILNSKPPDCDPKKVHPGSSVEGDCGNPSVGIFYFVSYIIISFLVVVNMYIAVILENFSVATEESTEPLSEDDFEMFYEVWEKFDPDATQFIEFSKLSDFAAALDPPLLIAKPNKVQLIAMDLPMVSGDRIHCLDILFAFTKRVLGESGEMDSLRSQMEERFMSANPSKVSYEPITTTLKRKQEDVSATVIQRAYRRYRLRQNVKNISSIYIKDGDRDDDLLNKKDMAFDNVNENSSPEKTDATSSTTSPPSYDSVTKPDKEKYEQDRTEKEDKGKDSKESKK

SMILES | IC50 [µM]
Cc1cc(C(=O)NC2CN(c3ncc(C(F)(F)F)cc3Cl)C2)nc(NC(=O)C2CC2)n1 [Example 53] | < 0.5
CCC(=O)Nc1cc(C(=O)NC2CCC(C)N(c3ncc(C(F)(F)F)cc3Cl)C2)ccn1 (centres unmarked) [Example 42] | < 0.5
Cc1cc(C(=O)NC2CN(c3ncc(C(F)(F)F)cc3Cl)C2)cc(NC(=O)C(C)C)n1 [Example 52] | < 0.5
Cc1cc(C(=O)N[C@@H]2CCCN(c3ccc(OC(F)(F)F)cc3Cl)C2)cc(NC(=O)C(C)C)n1 [Example 128] | < 0.5
COc1cc(C(F)(F)F)cnc1N1CC[C@@H](NC(=O)c2ccnc(NC(=O)C(C)C)c2)C1 [Example 83] | < 0.5
CCCC(=O)Nc1cc(C(=O)N[C@@H]2CCN(c3ncc(C(F)(F)F)cc3OC)C2)ccn1 [Example 88] | < 0.5
CC(C)C(=O)Nc1cc(C(=O)N[C@@H]2CCN(c3ncc(C(F)(F)F)cc3Cl)C2)ccn1 [Example 10] | < 0.5
CCC(=O)Nc1cc(C(=O)N[C@H]2CN(c3ncc(C(F)(F)F)cc3Cl)CC23CC3)cc(C)n1 [Example 107] | < 0.5
O=C(N[C@@H]1CCCN(c2ccc(OC(F)(F)F)cc2Cl)C1)c1ccnc(NC(=O)C2CC2)c1 [Example 125] | < 0.5
CCC(=O)Nc1cc(C(=O)N[C@H]2CN(c3ncc(C(F)(F)F)cc3Cl)CC23CC3)ccn1 [Example 116] | < 0.5
Cc1cc(C(=O)N[C@@H]2CCCN(c3ncc(C(F)(F)F)cc3Br)C2)cc(NC(=O)C2CC2)n1 [Example 60] | < 0.5
CCC(=O)Nc1cc(C(=O)N[C@@H]2CCN(c3ccc(C(F)(F)F)cn3)C2)ccn1 [Example 16] | < 0.5
CCC(=O)Nc1cc(C(=O)N[C@@H]2CCN(c3ncc(C(F)(F)F)cc3Cl)C2)cc(C)n1 [Example 11] | < 0.5
CC(=O)Nc1cc(C(=O)N[C@@H]2CCN(c3ccc(C(F)(F)F)cc3)C2)ccn1 [Example 120] | < 0.5
CCC(=O)Nc1cc(C(=O)N[C@@H]2CCCN(c3ccc(OC(F)(F)F)cc3Cl)C2)ccn1 [Example 129] | < 0.5
O=C(N[C@@H]1CCCN(c2ncc(C(F)(F)F)cc2Cl)C1)c1ccnc(NC(=O)C2CCC2)n1 [Example 28] | < 0.5
O=C(N[C@H]1CN(c2ncc(C(F)(F)F)cc2Cl)CC12CC2)c1ccnc(NC(=O)C2CC2)n1 [Example 119] | < 0.5
CC(=O)Nc1cc(C(=O)NC2CN(c3ncc(C(F)(F)F)cc3Cl)C2)cc(C)n1 [Example 51] | < 0.5
Cc1cc(C(=O)N[C@@H]2CCCN(c3ccc(C(F)(F)F)cc3Cl)C2)cc(NC(=O)C2CC2)n1 [Example 56] | < 0.5
CCC(=O)Nc1cc(C(=O)N[C@@H]2CCN(c3ncc(C(F)(F)F)cc3OC)C2)ccn1 [Example 38] | < 0.5
CCC(=O)Nc1cc(C(=O)N[C@@H]2CCN(c3ncc(C(F)(F)F)cc3Cl)C2)ccn1 [Example 48] | < 0.5
COc1cc(C(F)(F)F)cnc1N1CC[C@@H](NC(=O)c2ccnc(NC(C)=O)c2)C1 [Example 37] | < 0.5

SMILES | IC50 [µM]
CCC(=O)Nc1nccc(C(=O)N[C@@H]2CCN(c3ncc(C(F)(F)F)cc3Cl)C2)n1 [Example 20] | < 0.5
Cc1cc(C(=O)N[C@@H]2CCN(c3ccc(C(F)(F)F)cc3Cl)C2)cc(NC(=O)C(C)C)n1 [Example 80] | < 0.5
O=C(N[C@@H]1CCCN(c2ccc(C(F)(F)F)cc2Cl)C1)c1ccnc(NC(=O)C2CC2)c1 [Example 55] | < 0.5
CC(=O)Nc1cc(C(=O)NC2CCC(C)N(c3ncc(C(F)(F)F)cc3Cl)C2)ccn1 (centres unmarked) [Example 41] | < 0.5
CC(=O)Nc1cc(C(=O)N[C@@H]2CCN(c3ncc(C(F)(F)F)cc3C)C2)ccn1 [Example 46] | < 0.5
O=C(N[C@@H]1CCN(c2ccc(C(F)(F)F)cc2F)C1)c1ccnc(NC(=O)C2CC2)n1 [Example 121] | < 0.5
CCC(=O)Nc1cc(C(=O)N[C@@H]2CCCN(c3ncc(OCC(F)(F)F)cc3Cl)C2)ccn1 [Example 95] | < 0.5
Cc1cc(C(=O)N[C@@H]2CCCN(c3ccc(OC(F)(F)F)cc3Cl)C2)nc(NC(=O)C2CC2)n1 [Example 132] | < 0.5
O=C(N[C@@H]1CCN(c2ncc(C(F)(F)F)cc2Cl)C1)c1ccnc(NC(=O)C2CCC2)n1 [Example 23] | < 0.5
O=C(N[C@@H]1CCCN(c2ncc(C(F)(F)F)cc2Cl)C1)c1ccnc(NC(=O)C2CC2)n1 [Example 26] | < 0.5
O=C(N[C@@H]1CCCN(c2ncc(OCc3ccc(F)cc3)cc2Cl)C1)c1ccnc(NC(=O)C2CC2)c1 [Example 99] | < 0.5
Cc1cc(C(F)(F)F)cnc1N1CC[C@@H](NC(=O)c2ccnc(NC(=O)C3CC3)c2)C1 [Example 47] | < 0.5
Cc1cc(C(=O)N[C@@H]2CCCN(c3ncc(C(F)(F)F)cc3Cl)C2)nc(NC(=O)C2CC2)n1 [Example 114] | < 0.5
CC(C)C(=O)Nc1cc(C(=O)N[C@@H]2CCN(c3ccc(C(F)(F)F)cc3Cl)C2)ccn1 [Example 79] | < 0.5
O=C(N[C@@H]1CCN(c2ncc(C(F)(F)F)cc2Cl)C1)c1ccnc(NC(=O)C2CC2)n1 [Example 21] | < 0.5
CCC(=O)Nc1nccc(C(=O)N[C@@H]2CCCN(c3ncc(C(F)(F)F)cc3Cl)C2)n1 [Example 25] | < 0.5
CC(=O)Nc1cc(C(=O)N[C@H]2CN(c3ncc(C(F)(F)F)cc3Cl)CC23CC3)cc(C)n1 [Example 117] | < 0.5
COc1cc(C(F)(F)F)cnc1N1CC[C@@H](NC(=O)c2cc(C)nc(NC(=O)C(C)C)c2)C1 [Example 84] | < 0.5
Cc1cc(C(=O)N[C@@H]2CCCN(c3ncc(C(F)(F)F)cc3C)C2)cc(NC(=O)C(C)C)n1 [Example 73] | < 0.5
CC(C)C(=O)Nc1nccc(C(=O)N[C@@H]2CCN(c3ncc(C(F)(F)F)cc3Cl)C2)n1 [Example 22] | < 0.5
CC(C)C(=O)Nc1cc(C(=O)NC2CN(c3ncc(C(F)(F)F)cc3Cl)C2)ccn1 [Example 50] | < 0.5
O=C(N[C@@H]1CCCN(c2ncc(C(F)(F)F)cc2Br)C1)c1ccnc(NC(=O)C2CC2)c1 [Example 59] | < 0.5

Continued, values first:

IC50 [µM] | SMILES
< 0.5 | Cc1cc(C(=O)N[C@@H]2CCN(c3ncc(C(F)(F)F)cc3Cl)C2)cc(NC(=O)C2CC2)n1 [Example 78]
< 0.5 | O=C(N[C@@H]1CCN(c2ncc(OCC(F)(F)F)cc2Cl)C1)c1ccnc(NC(=O)C2CC2)c1 [Example 93]
< 0.5 | COc1cc(C(F)(F)F)cnc1N1CC[C@@H](NC(=O)c2cc(C)nc(NC(C)=O)c2)C1 [Example 39]
< 0.5 | CC(=O)Nc1nccc(C(=O)N[C@@H]2CCCN(c3ncc(C(F)(F)F)cc3Cl)C2)n1 [Example 24]
< 0.5 | Cc1cc(C(=O)N[C@@H]2CCCN(c3ccc(C(F)(F)F)cc3Cl)C2)cc(NC(=O)C(C)C)n1 [Example 58]
< 0.5 | COc1cc(C(F)(F)F)cnc1N1CC[C@@H](NC(=O)c2ccnc(NC(=O)C3CC3)c2)C1 [Example 81]
< 0.5 | CCC(=O)Nc1cc(C(=O)N[C@@H]2CCN(c3ncc(OCC(F)(F)F)cc3Cl)C2)ccn1 [Example 96]
< 0.5 | O=C(N[C@@H]1CCCN(c2ncc(OCC(F)(F)F)cc2Cl)C1)c1ccnc(NC(=O)C2CC2)c1 [Example 92]
< 0.5 | CC(=O)Nc1cc(C(=O)N[C@@H]2CCN(c3ncc(C(F)(F)F)cc3Cl)C2)cc(C)n1 [Example 49]
< 0.5 | CC(=O)Nc1cc(C(=O)N[C@@H]2CCCN(c3ncc(C(F)(F)F)cc3Cl)C2)ccn1 [Example 5]
< 0.5 | CC(C)C(=O)Nc1cc(C(=O)N[C@@H]2CCN(c3ccc(C(F)(F)F)c(F)c3)C2)ccn1 [Example 123]
< 0.5 | O=C(N[C@@H]1CCN(c2ccc(C(F)(F)F)cc2Cl)C1)c1ccnc(NC(=O)C2CC2)c1 [Example 77]
< 0.5 | CC(C)C(=O)Nc1cc(C(=O)N[C@@H]2CCCN(c3ccc(OC(F)(F)F)cc3Cl)C2)ccn1 [Example 127]
< 0.5 | Cc1cc(C(=O)N[C@H]2CN(c3ncc(C(F)(F)F)cc3Cl)CC23CC3)cc(NC(=O)C(C)C)n1 [Example 118]
< 0.5 | CC(C)C(=O)Nc1cc(C(=O)N[C@@H]2CCCN(c3ccc(C(F)(F)F)cc3Cl)C2)ccn1 [Example 57]
< 0.5 | Cc1cc(C(=O)N[C@@H]2CCN(c3ncc(C(F)(F)F)cc3Cl)C2)cc(NC(=O)C(C)C)n1 [Example 104]
< 0.5 | CC(=O)Nc1cc(C(=O)N[C@@H]2CCN(c3ncc(C(F)(F)F)cc3Cl)C2)ccn1 [Example 2]
< 0.5 | CC(C)C(=O)Nc1cc(C(=O)N[C@H]2CN(c3ncc(C(F)(F)F)cc3Cl)CC23CC3)ccn1 [Example 109]
< 0.5 | CCC(=O)Nc1cc(C(=O)N[C@@H]2CCCN(c3ncc(C(F)(F)F)cc3Cl)C2)ccn1 [Example 6]
< 0.5 | O=C(N[C@@H]1CCCN(c2ccc(OC(F)(F)F)cc2Cl)C1)c1ccnc(NC(=O)C2CC2)n1 [Example 126]
< 0.5 | COc1cc(C(F)(F)F)cnc1N1CC[C@@H](NC(=O)c2cc(C)nc(NC(=O)C3CC3)c2)C1 [Example 82]

Source: US12110287B2, “Heterocyclic derivatives as Nav1.7 and Nav1.8 blockers” (RaQualia Pharma Inc., priority 2018, dated 2024)
